Experimental data: a compilation of properties of binary mixtures (doi:10.1016/j.molliq.2018.07.077)

Test: xn = mol fraction of the nth substance listed
Settings: 101 kPa

Compound: C[n+]1ccn(CCCC#N)c1.O=S(=O)([O-])C(F)(F)F + CC#N
- electrical conductivity (288.15 K, x1 = 0.2002): 1.88 S/m
- viscosity (288.15 K, x1 = 0.2002): 6.79 mPa·s
- electrical conductivity (288.15 K, x1 = 0.4006): 0.55 S/m
- viscosity (288.15 K, x1 = 0.4006): 70.7 mPa·s
- electrical conductivity (288.15 K, x1 = 0.6005): 0.175 S/m
- viscosity (288.15 K, x1 = 0.6005): 160 mPa·s
- electrical conductivity (288.15 K, x1 = 0.698): 0.07 S/m
- viscosity (288.15 K, x1 = 0.698): 340 mPa·s
- electrical conductivity (288.15 K, x1 = 0.7996): 0.053 S/m
- viscosity (288.15 K, x1 = 0.7996): 579 mPa·s
- electrical conductivity (288.15 K, x1 = 0.9007): 0.031 S/m
- viscosity (288.15 K, x1 = 0.9007): 874 mPa·s
- electrical conductivity (288.15 K, x1 = 1): 0.023 S/m
- viscosity (288.15 K, x1 = 1): 1182 mPa·s
- electrical conductivity (293.15 K, x1 = 0.1002): 2.87 S/m
- viscosity (293.15 K, x1 = 0.1002): 1.51 mPa·s
- electrical conductivity (293.15 K, x1 = 0.2002): 2.08 S/m
- viscosity (293.15 K, x1 = 0.2002): 5.95 mPa·s
- electrical conductivity (293.15 K, x1 = 0.2994): 1.19 S/m
- viscosity (293.15 K, x1 = 0.2994): 14.1 mPa·s
- electrical conductivity (293.15 K, x1 = 0.4006): 0.651 S/m
- viscosity (293.15 K, x1 = 0.4006): 55.5 mPa·s
- electrical conductivity (293.15 K, x1 = 0.5): 0.246 S/m
- viscosity (293.15 K, x1 = 0.5): 85.7 mPa·s
- electrical conductivity (293.15 K, x1 = 0.698): 0.093 S/m
- viscosity (293.15 K, x1 = 0.698): 255 mPa·s
- electrical conductivity (293.15 K, x1 = 0.7996): 0.079 S/m
- viscosity (293.15 K, x1 = 0.7996): 417 mPa·s
- electrical conductivity (293.15 K, x1 = 0.9007): 0.044 S/m
- viscosity (293.15 K, x1 = 0.9007): 625 mPa·s
- electrical conductivity (293.15 K, x1 = 1): 0.033 S/m
- viscosity (293.15 K, x1 = 1): 811 mPa·s
- electrical conductivity (298.15 K, x1 = 0.1002): 3.04 S/m
- viscosity (298.15 K, x1 = 0.1002): 1.4 mPa·s
- electrical conductivity (298.15 K, x1 = 0.2002): 2.28 S/m
- viscosity (298.15 K, x1 = 0.2002): 5.23 mPa·s
- electrical conductivity (298.15 K, x1 = 0.2994): 1.35 S/m
- viscosity (298.15 K, x1 = 0.2994): 12.15 mPa·s
- electrical conductivity (298.15 K, x1 = 0.4006): 0.766 S/m
- viscosity (298.15 K, x1 = 0.4006): 44.44 mPa·s
- electrical conductivity (298.15 K, x1 = 0.5): 0.315 S/m
- viscosity (298.15 K, x1 = 0.5): 68.6 mPa·s
- electrical conductivity (298.15 K, x1 = 0.6005): 0.278 S/m
- viscosity (298.15 K, x1 = 0.6005): 92 mPa·s
- electrical conductivity (298.15 K, x1 = 0.698): 0.124 S/m
- viscosity (298.15 K, x1 = 0.698): 195.4 mPa·s
- electrical conductivity (298.15 K, x1 = 0.9007): 0.061 S/m
- viscosity (298.15 K, x1 = 0.9007): 450 mPa·s
- electrical conductivity (298.15 K, x1 = 1): 0.046 S/m
- viscosity (298.15 K, x1 = 1): 581 mPa·s
- electrical conductivity (303.15 K, x1 = 0.1002): 3.22 S/m
- viscosity (303.15 K, x1 = 0.1002): 1.3 mPa·s
- electrical conductivity (303.15 K, x1 = 0.2002): 2.49 S/m
- viscosity (303.15 K, x1 = 0.2002): 4.65 mPa·s
- electrical conductivity (303.15 K, x1 = 0.2994): 1.51 S/m
- viscosity (303.15 K, x1 = 0.2994): 10.55 mPa·s
- electrical conductivity (303.15 K, x1 = 0.4006): 0.896 S/m
- viscosity (303.15 K, x1 = 0.4006): 36.24 mPa·s
- electrical conductivity (303.15 K, x1 = 0.5): 0.394 S/m
- viscosity (303.15 K, x1 = 0.5): 54.8 mPa·s
- electrical conductivity (303.15 K, x1 = 0.6005): 0.345 S/m
- viscosity (303.15 K, x1 = 0.6005): 72.2 mPa·s
- electrical conductivity (303.15 K, x1 = 0.698): 0.163 S/m
- viscosity (303.15 K, x1 = 0.698): 149 mPa·s
- electrical conductivity (303.15 K, x1 = 0.7996): 0.151 S/m
- viscosity (303.15 K, x1 = 0.7996): 230 mPa·s
- electrical conductivity (308.15 K, x1 = 0.1002): 3.41 S/m
- viscosity (308.15 K, x1 = 0.1002): 1.21 mPa·s
- electrical conductivity (308.15 K, x1 = 0.2002): 2.69 S/m
- viscosity (308.15 K, x1 = 0.2002): 4.18 mPa·s
- electrical conductivity (308.15 K, x1 = 0.4006): 1.03 S/m
- viscosity (308.15 K, x1 = 0.4006): 29.81 mPa·s
- electrical conductivity (308.15 K, x1 = 0.5): 0.485 S/m
- viscosity (308.15 K, x1 = 0.5): 44.07 mPa·s
- electrical conductivity (308.15 K, x1 = 0.6005): 0.419 S/m
- viscosity (308.15 K, x1 = 0.6005): 57.2 mPa·s
- electrical conductivity (308.15 K, x1 = 0.698): 0.213 S/m
- viscosity (308.15 K, x1 = 0.698): 116.3 mPa·s
- electrical conductivity (308.15 K, x1 = 0.7996): 0.193 S/m
- viscosity (308.15 K, x1 = 0.7996): 174 mPa·s
- electrical conductivity (308.15 K, x1 = 0.9007): 0.106 S/m
- viscosity (308.15 K, x1 = 0.9007): 245 mPa·s
- electrical conductivity (313.15 K, x1 = 0.1002): 3.57 S/m
- viscosity (313.15 K, x1 = 0.1002): 1.13 mPa·s
- electrical conductivity (313.15 K, x1 = 0.2994): 1.88 S/m
- viscosity (313.15 K, x1 = 0.2994): 8.05 mPa·s
- electrical conductivity (313.15 K, x1 = 0.4006): 1.17 S/m
- viscosity (313.15 K, x1 = 0.4006): 24.79 mPa·s
- electrical conductivity (313.15 K, x1 = 0.6005): 0.5 S/m
- viscosity (313.15 K, x1 = 0.6005): 46.5 mPa·s
- electrical conductivity (313.15 K, x1 = 0.698): 0.274 S/m
- viscosity (313.15 K, x1 = 0.698): 91.3 mPa·s
- electrical conductivity (313.15 K, x1 = 0.9007): 0.135 S/m
- viscosity (313.15 K, x1 = 0.9007): 185 mPa·s
- electrical conductivity (313.15 K, x1 = 1): 0.104 S/m
- viscosity (313.15 K, x1 = 1): 231 mPa·s
- electrical conductivity (318.15 K, x1 = 0.2002): 3.08 S/m
- viscosity (318.15 K, x1 = 0.2002): 3.41 mPa·s
- electrical conductivity (318.15 K, x1 = 0.2994): 2.08 S/m
- viscosity (318.15 K, x1 = 0.2994): 7.12 mPa·s
- electrical conductivity (318.15 K, x1 = 0.4006): 1.32 S/m
- viscosity (318.15 K, x1 = 0.4006): 21.09 mPa·s
- electrical conductivity (318.15 K, x1 = 0.6005): 0.593 S/m
- viscosity (318.15 K, x1 = 0.6005): 37.8 mPa·s
- electrical conductivity (318.15 K, x1 = 0.7996): 0.288 S/m
- viscosity (318.15 K, x1 = 0.7996): 104.7 mPa·s
- electrical conductivity (318.15 K, x1 = 1): 0.131 S/m
- viscosity (318.15 K, x1 = 1): 177.1 mPa·s
- electrical conductivity (323.15 K, x1 = 0.2002): 3.28 S/m
- viscosity (323.15 K, x1 = 0.2002): 3.13 mPa·s
- electrical conductivity (323.15 K, x1 = 0.2994): 2.29 S/m
- viscosity (323.15 K, x1 = 0.2994): 6.32 mPa·s
- electrical conductivity (323.15 K, x1 = 0.4006): 1.48 S/m
- viscosity (323.15 K, x1 = 0.4006): 18.37 mPa·s
- electrical conductivity (323.15 K, x1 = 0.5): 0.781 S/m
- viscosity (323.15 K, x1 = 0.5): 25.17 mPa·s
- electrical conductivity (323.15 K, x1 = 0.698): 0.44 S/m
- viscosity (323.15 K, x1 = 0.698): 61.3 mPa·s
- electrical conductivity (323.15 K, x1 = 0.7996): 0.341 S/m
- viscosity (323.15 K, x1 = 0.7996): 83.4 mPa·s
- electrical conductivity (323.15 K, x1 = 0.9007): 0.205 S/m
- viscosity (323.15 K, x1 = 0.9007): 104.8 mPa·s
- electrical conductivity (323.15 K, x1 = 1): 0.161 S/m
- viscosity (323.15 K, x1 = 1): 141.4 mPa·s
